These are literature values, as cited in patent US20240100019A1, “COMPOSITIONS COMPRISING A THERMOREVERSIBLE HYDROGEL, AND HAVING AN EXTENDED IN-USE PERIOD” (UroGen Pharma Ltd., priority 2022, published 2024).

Read-outs that look alike come from different tables or passages of the source.

For data set [1] the following is noted: room temperature; pH 4.5, 5.5, 6.0 and 7.0 solutions.

For `CO[C@@]12[C@H](COC(N)=O)C3=C(C(=O)C(C)=C(N)C3=O)N1C[C@@H]1N[C@@H]12` [mitomycin C], the “time for which MMC was stable (relative concentrations systematically over 90% of the initial concentrations)” value is 10 h (0.2 mg/ml in 0.9% sodium chloride solution) and 8 h (in water for injections at a concentration of 1 mg/mL). Besides, the “relative MMC concentration as compared to initial concentration” value (after 96 h, these solutions) was “below 80%”. Also, the degradation products observed entry (reconstituted and diluted solutions) is “below 3%”. Also, the “time at which MMC was unstable (less than 90% of the initial value)” value in data set [1] was less than 24 h.
